Measurements: paper PMC8148022 (Cancer letters, 2018)

Target: T1, breast cancer resistance protein (BCRP) (Homo sapiens, UniProt Q9UNQ0)
T1 sequence (Q9UNQ0 1-655): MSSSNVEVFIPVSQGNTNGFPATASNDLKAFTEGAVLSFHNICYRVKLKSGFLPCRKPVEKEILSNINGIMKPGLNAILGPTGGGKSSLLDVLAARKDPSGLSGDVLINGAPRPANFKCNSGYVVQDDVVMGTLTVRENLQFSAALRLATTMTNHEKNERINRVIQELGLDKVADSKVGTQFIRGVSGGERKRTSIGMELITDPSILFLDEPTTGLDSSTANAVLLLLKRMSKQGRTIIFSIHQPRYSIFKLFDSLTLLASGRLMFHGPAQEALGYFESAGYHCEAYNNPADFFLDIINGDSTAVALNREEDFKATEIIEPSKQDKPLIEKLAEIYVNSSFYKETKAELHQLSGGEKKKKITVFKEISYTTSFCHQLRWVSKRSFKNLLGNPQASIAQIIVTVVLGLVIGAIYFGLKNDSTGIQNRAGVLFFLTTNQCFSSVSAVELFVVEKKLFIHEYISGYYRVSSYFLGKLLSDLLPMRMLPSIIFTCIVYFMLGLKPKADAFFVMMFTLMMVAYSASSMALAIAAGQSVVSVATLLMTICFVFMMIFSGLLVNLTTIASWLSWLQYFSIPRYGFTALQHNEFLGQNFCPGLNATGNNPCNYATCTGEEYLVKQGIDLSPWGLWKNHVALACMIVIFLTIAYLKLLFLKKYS
Experiment: biochemical

EC50: 3.59 ± 0.42 µM
Compound: CNC(=O)c1cc(Oc2ccc(NC(=O)Nc3ccc(Cl)c(C(F)(F)F)c3)c(F)c2)ccn1 [regorafenib]
